# Experimental data as given in US20240277716A1, “Suppressive T Cell Populations and Methods of Cancer Immunotherapy” (La Jolla Institute for Immunology, priority 2021, published 2024).
# How the values were obtained:
# Format in all cases: in vivo, mouse
# [1] = system: colonic CD8+ and CD4+ T cells; assay: scRNA sequencing of colonic CD8+ and CD4+ T cells under different PI3Kδi dosing regimens
# Protocol: (§1) Tumor experiments. Mice were inoculated with 1-1.5×10^5 B16F10-OVA cells subcutaneously into the right flank. Mice were put on either a control diet or a diet containing a PI3Kδ inhibitor PI-3065 on day 1 or day 5 after tumor inoculation. Diets were prepared using powdered 2018 global rodent diet (Envigo) mixed with or without PI-3065 at 0.5 g/kg, which corresponds to a daily dose of 75 mg/kg as used previously. To pellet the food, 50% v/w water was added to the diet and dough thoroughly mixed, compressed, molded and dried before use. Tumor size was monitored every other day, and tumor harvested at indicated time points for analysis of tumor-infiltrating lymphocytes. Tumor size limit of 15 mm in diameter was not exceeded and volume was calculated as ½×D×d^2, where D is the major axis and d is the minor axis, as described previously^36.
# Murine colonic CD4+ and CD8+ T cells. Single-cell RNA-seq was performed by using the 10× platform. Mapping, aggregation, and QC was carried out as described above with the following thresholds: genes per cells range of [300, 4500], UMI content per cell […], percent of mitochondrial counts of <=10%, and a doublet score of <=0.3. Cluster of contaminant cells expressing epithelial, monocyte, and fibroblast markers was eliminated after the first round of clustering. The final number of cells were n=6415 CD4^+ T cells and n=2715 CD8^+ T cells.
# [2] = system: TREG cells from tumor, spleen and colonic tissue; assay: Single-cell RNA-seq and flow cytometry of TREG and CD8+ T cells from tumor, spleen and colon of B16F10-OVA tumor-bearing mice
# Protocol: (§2) Murine lymphocytes were isolated from the spleen by mechanical dispersion through a 70-μm cell strainer (Miltenyi) to generate single-cell suspensions. RBC lysis (Biolegend) was performed to remove red blood cells. Tumor samples were harvested and lymphocytes were isolated by dispersing the tumor tissue in 2 ml of PBS, followed by incubation of samples at 37° C. for 15 min with DNase I (Sigma) and Liberase DL (Roche). The suspension was then diluted with MACS buffer and passed through a 70-μm cell strainer to generate a single cell suspension. Colons were collected and rinsed in 1 mM dithiothreitol (DTT) to remove feces. Each colon was cut into 2-3 mm pieces and incubated 3 times in pre-digestion solution (HBSS containing 5% FBS and 2 mM EDTA) at 37° C. for 20 min under high rotation to remove epithelial cells. Then tissues were minced with scissors and incubated with digestion solution (HBSS containing 5% FBS, 100 μg/ml DNase I (Sigma) and 1 mg/ml collagenase (Sigma)) at 37° C. for 20 min under high rotation to get single cell solutions of lamina propria cells. Cells were prepared in staining buffer (PBS with 2% FBS and 2 mM EDTA), FcR blocked (clone 2.4G2, BD Biosciences) and stained with antibodies as indicated below for 30 min at 4° C.; secondary stains were done for selected markers. Samples were then sorted or fixed and intracellularly stained using a FoxP3 transcription factor kit according to manufacturer's instructions (eBioscience). Cell viability was determined using fixable viability dye (ThermoFisher). The following antibodies from BD Biosciences, Biolegend, Miltenyi or eBbioscience were used: anti-human PD-1 (EH12.1, 1:30), CD4 (OKT4, 1:30), CD137 (4B4-1, 1:30), GITR (108-17, 1:30), ICOS (C398.4A, 1:50), CD8A (SKI, 1:30), CD25 (M-A251, 1:20), CD3 (SK7, 1:30), CD127 (eBioRDR5, 1:50), CD45 (HI30, 1:30), CD14 (HCD14, 1:50), CD20 (2H7, 1:50); anti-mouse CD3 (145-2C11, 1:100), CD4 (RM4-5, 1:100), CD8 (53-6.7, 1:100), PD-1 (29F1.A12, 1:100), ST2 (U29-93, 1:100) Ki67 (B56, 1:40), TOX (REA473, 1:40), CD19 (6D5, 1:100), CD45 (30-F11, 1:100), FOXP3 (FJK-16s, 1:100), GZMB (QA16A02, 1:40). All samples were acquired on a BD FACS Fortessa or sorted on a BD FACS Fusion (both BD Biosciences) and analyzed using FlowJo 10.4.1 for subsequent single-cell RNA-seq analysis.
# Murine TREG cells. […] Reads were mapped with Cell Ranger followed by QC (github.com/vijaybioinfo/quality_control) and demultiplexed with bcl2fastq using default parameters. […] Differential expression was calculated with MAST^38 (v1.10.0) DESeq2 (v1.24.0) as previously described^37 and genes with an adjusted P-value <0.05 and a fold change of >log2 0.5 were defined as significant. […]
# [3] = system: DSS-induced acute colitis; assay: Dextran Sulfate Sodium (DSS)-induced acute colitis model
# Protocol: Colitis experiments. […] Body weight of the mice was monitored. Colon tissues were collected for histological analysis at the endpoint. Whole colons were harvested from mice between cecum and rectum. Stools were flushed out of lumen with PBS. Then colons were fixed with zinc formalin for 5 minutes. Fixed colons were opened longitudinally, flattened, cut into 3 fragments and further fixed in zinc formalin for 48 hours in cassettes. After fixation, samples were transferred to 70% isopropanol for long term storage or H&E staining. Slides were scored blindly according to the following criteria: inflammation, area of infiltration (extent), crypt damage and edema. The colon was divided into 3 equal parts and the middle section was utilized for scoring. Four randomly selected areas were analyzed, and a histological score was determined.
# [4] = system: B16F10-OVA melanoma cells; assay: B16F10-OVA melanoma model, PI-3065 in diet: tumor volume and flow cytometry
# Protocol: as §1, §2
smiles,measurement,setting,value
Fc1ccc2[nH]ccc2c1-c1nc(N2CCOCC2)c2sc(CN3CCN(CC4CC4)CC3)cc2n1 [PI-3065],innate-like CD8+ T cells in colon,[1]; across dosing regimens,dosing-dependent decrease
same,"TC17 and TH17 subsets and pertaining proliferating clusters, share of all cells",[1]; continuous dosing regimen,~50%
same,TC17 and TH17 subsets and pertaining proliferating clusters,"[1]; other treatment conditions (intermittent, infrequent, control)",nearly completely absent
same,differentially expressed genes in colonic TREG cells,[2]; PI3Kδi vs placebo treatment,869 genes
same,colonic TREG subsets (clusters 2 and 8),[2]; PI3Kδi-treated mice,depleted
same,CD8+ T cells in colonic tissue,"[2]; colonic, but not splenic tissue",significant increase
same,ratio of CD8+ T cells to ST2 TREG cells,[2]; protein level,substantially increased
same,body weight,"[3]; 2.5% DSS from day 14-20, PI-3065 diet vs placebo",swift reduction in body weight
same,deaths prior to experimental endpoint,"[3]; PI3Kδ inhibitor-treated group, n=10",one
same,effect on colitis,[3]; PI-3065 diet plus 2.5% DSS,exacerbates colitis
same,overall colitis score,"[3]; inflammation, crypt damage, extent, vs placebo",higher overall colitis score
same,tumor volume,"[4]; C57BL/6 wild-type mice, PI-3065 diet vs control",significant decrease
same,"TREG cells in tumor, spleen and colon",[4]; PI3Kδi-treated vs placebo-treated mice,significant decrease
same,tumor growth,[4]; continuous dosing (for the duration of the experiment),decrease in tumor growth
same,CD8+ T cell infiltration in colonic tissue,[4]; continuous dosing only,increased
same,TREG cell levels in colonic tissue,[4]; continuous dosing only,decreased
same,intratumoral CD8+ T cells,"[4]; high PD-1, increased proliferative and cytotoxic capacity",significant increase
same,tumor growth,"[4]; infrequent dosing (2 days on, 5 days off), 2 cycles","decrease in tumor growth, albeit not significantly"
same,tumor growth,"[4]; intermittent dosing (4 days on, 3 days off), 2 cycles",significant decrease in tumor growth
same,TOX in CD8+ T cells,[4]; post-PI3Kδi,increased
